Measured values published in ChEMBL document CHEMBL1147529, “Discovery and optimization of 2-aryl oxazolo-pyrimidines as adenosine kinase inhibitors using liquid phase parallel synthesis” (Bioorg Med Chem Lett, 2004).
pIC50: −log10 of the molar value.

Biological target: Adenosine kinase (Homo sapiens, UniProt P55263)
Assay: Inhibitory activity against human adenosine kinase expressed in Escherichia coli

Sequence of Adenosine kinase (P55263 whole entry): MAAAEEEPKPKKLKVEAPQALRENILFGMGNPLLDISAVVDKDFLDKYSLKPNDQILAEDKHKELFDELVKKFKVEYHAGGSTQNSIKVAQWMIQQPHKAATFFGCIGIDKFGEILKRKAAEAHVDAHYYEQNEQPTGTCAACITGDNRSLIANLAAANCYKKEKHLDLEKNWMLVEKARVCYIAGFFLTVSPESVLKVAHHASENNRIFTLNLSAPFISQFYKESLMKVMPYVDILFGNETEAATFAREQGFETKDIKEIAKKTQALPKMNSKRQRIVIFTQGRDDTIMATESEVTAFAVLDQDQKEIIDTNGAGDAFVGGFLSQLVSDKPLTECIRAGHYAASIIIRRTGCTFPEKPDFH

| pIC50 | Structure (SMILES) |
| --- | --- |
| 6.70 | O=C(Nc1cccc(-c2nc3c(N4CC5CCN(Cc6ccccc6)C5C4)ncnc3o2)c1)c1ccc(F)cc1 (configuration not stated) |
| < 6.00 | c1ccc(CN2CCC3CN(c4ncnc5oc(-c6ccncc6)nc45)CC32)cc1 (configuration not stated) |
| 6.92 | c1ccc(CN2CC[C@@H]3CN(c4ncnc5oc(-c6ccccc6)nc45)C[C@@H]32)cc1 |
| 6.62 | Brc1ccc(-c2nc3c(N4CC5CCN(Cc6ccccc6)C5C4)ncnc3o2)cc1 (configuration not stated) |
| < 5.00 | O=C(Nc1cccc(-c2nc3c(N4CC5CCN(Cc6ccccc6)C5C4)ncnc3o2)c1)c1ccc(C(F)(F)F)cc1 (configuration not stated) |
| 6.89 | c1ccc(CN2CCC3CN(c4ncnc5oc(-c6cccnc6)nc45)CC32)cc1 (configuration not stated) |
| < 5.00 | c1ccc(CN2CC3CN(c4ncnc5oc(-c6ccccc6)nc45)CC3C2)cc1 (configuration not stated) |
| 7.15 | Clc1ccc(-c2nc3c(N4CC5CCN(Cc6ccccc6)C5C4)ncnc3o2)cn1 (configuration not stated) |
| < 5.00 | c1ccc(CN2CCN(c3ncnc4oc(-c5ccccc5)nc34)CC2)cc1 |
| 8.00 | Nc1ncnc2nc(-c3ccc(N4CCOCC4)nc3)cc(-c3cccc(Br)c3)c12 |
| 6.59 | Brc1cccc(-c2nc3c(N4CC5CCN(Cc6ccccc6)C5C4)ncnc3o2)c1 (configuration not stated) |
| 7.40 | COCC(=O)Nc1ccc(-c2nc3c(N4CC5CCN(Cc6ccccc6)C5C4)ncnc3o2)cc1 (configuration not stated) |
| 7.40 | COCC(=O)Nc1cccc(-c2nc3c(N4CC5CCN(Cc6ccccc6)C5C4)ncnc3o2)c1 (configuration not stated) |
| 6.57 | CN(CCCNc1ncnc2oc(-c3ccccc3)nc12)c1ccccc1 |
| 7.30 | Nc1ccc(-c2nc3c(N4CC5CCN(Cc6ccccc6)C5C4)ncnc3o2)cc1 (configuration not stated) |
| 7.22 | O=C(Nc1cccc(-c2nc3c(N4CC5CCN(Cc6ccccc6)C5C4)ncnc3o2)c1)C1CC1 (configuration not stated) |

| pIC50 | Structure (SMILES) |
| --- | --- |
| 7.15 | O=C(Nc1ccc(-c2nc3c(N4CC5CCN(Cc6ccccc6)C5C4)ncnc3o2)cc1)c1ccccc1 (configuration not stated) |
| 7.05 | c1ccc(CN2CCC3CN(c4ncnc5oc(-c6ccc(-c7cccs7)cc6)nc45)CC32)cc1 (configuration not stated) |
| 6.89 | O=C(Nc1ccc(-c2nc3c(N4CC5CCN(Cc6ccccc6)C5C4)ncnc3o2)cc1)c1ccc(F)cc1 (configuration not stated) |
| < 5.00 | Fc1ccc(-c2ccc(-c3nc4c(N5CC6CCN(Cc7ccccc7)C6C5)ncnc4o3)cc2)cc1 (configuration not stated) |
| 7.05 | O=C(Nc1cccc(-c2nc3c(N4CC5CCN(Cc6ccccc6)C5C4)ncnc3o2)c1)c1ccccc1 (configuration not stated) |
| < 5.00 | CCCCNc1ncnc2oc(-c3ccccc3)nc12 |
| 7.15 | O=C(Cc1ccccc1)Nc1ccc(-c2nc3c(N4CC5CCN(Cc6ccccc6)C5C4)ncnc3o2)cc1 (configuration not stated) |
| 6.68 | O=C(Cc1ccccc1)Nc1cccc(-c2nc3c(N4CC5CCN(Cc6ccccc6)C5C4)ncnc3o2)c1 (configuration not stated) |
| 6.64 | c1ccc(CCCNc2ncnc3oc(-c4ccccc4)nc23)cc1 |
| < 5.00 | COCCNc1ncnc2oc(-c3ccccc3)nc12 |
| 6.00 | c1ccc(CN2C[C@@H]3CCCN(c4ncnc5oc(-c6ccccc6)nc45)[C@@H]3C2)cc1 |
| 6.70 | c1ccc(CN2CCC3CN(c4ncnc5oc(-c6ccccc6)nc45)CC32)cc1 (configuration not stated) |
| < 6.00 | Fc1ccc(CN2CCCN(c3ncnc4oc(-c5ccccc5)nc34)CC2)cc1 |
| 7.52 | O=C(Nc1ccc(-c2nc3c(N4CC5CCN(Cc6ccccc6)C5C4)ncnc3o2)cc1)C1CC1 (configuration not stated) |
| 8.00 | CN(C)c1ccc(-c2nc3c(N4CC5CCN(Cc6ccccc6)C5C4)ncnc3o2)cn1 (configuration not stated) |
| < 5.00 | O=C(Nc1ccc(-c2nc3c(N4CC5CCN(Cc6ccccc6)C5C4)ncnc3o2)cc1)c1ccc(C(F)(F)F)cc1 (configuration not stated) |
